Measured values reported in the supplement of paper PMC6718421.

Test system: Caenorhabditis elegans
Assay: animals per well after 6 days (50 L1 seeded); higher = more viable animals (less toxic)
Method: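 About 50 synchronized L1s per well were grown in liquid NGM with E. coli HB101 and twofold serial dilutions (0.12-120 uM) of crystal- or sphere-forming wactives for 6 days at 20 C; animals per well were counted, and overgrown wells (>50 animals) were scored as 100. Values are averages of replicate wells for wild type and sms-5(ok2498).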

CCCc1nc(-c2ccc(-c3ccc(F)cc3)cc2)no1 [wact-390]
animals per well
Conditions | genotype: sms-5(ok2498) | genotype: wild type N2
0.1171875 µM | > 100 | > 100
0.234375 µM | > 100 | > 100
0.46875 µM | > 100 | > 100
0.9375 µM | > 100 | > 100
1.875 µM | > 100 | 56.2
3.75 µM | > 100 | 4.83
7.5 µM | > 100 | 3.33
15 µM | > 100 | 2.83
30 µM | > 100 | 2.33
60 µM | > 100 | 0.333
120 µM | 92.7 | 0.667
